Test results taken from the supplement of paper PMC8960247.
Counter-ions that a name gives are not always drawn. ± gives the standard error.

How the values were obtained:
621-102 (TSC2-deficient) = assay: relative viability vs DMSO; higher = less cytotoxic; conditions: serum: 10% FBS, 72 h
621-103 (TSC2-rescued) = assay: as above; conditions: serum: 10% FBS, 72 h
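Further: immortalized renal angiomyolipoma cells stably carrying empty vector or TSC2, dosed in 384-well plates in DMEM, viability normalized to vehicle-treated wells within each plate.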

Row | Compound | relative viability (621-102 (TSC2-deficient); 0.0001 µM) [%] | relative viability (621-102 (TSC2-deficient); 0.001 µM) [%] | relative viability (621-102 (TSC2-deficient); 0.01 µM) [%] | relative viability (621-102 (TSC2-deficient); 0.1 µM) [%] | relative viability (621-102 (TSC2-deficient); 1 µM) [%] | relative viability (621-102 (TSC2-deficient); 10 µM) [%] | relative viability (621-103 (TSC2-rescued); 0.0001 µM) [%] | relative viability (621-103 (TSC2-rescued); 0.001 µM) [%] | relative viability (621-103 (TSC2-rescued); 0.01 µM) [%] | relative viability (621-103 (TSC2-rescued); 0.1 µM) [%] | relative viability (621-103 (TSC2-rescued); 1 µM) [%] | relative viability (621-103 (TSC2-rescued); 10 µM) [%]
1 | O=c1cc(-c2ccc(O)cc2)oc2cc(O)cc(O)c12 [Apigenin] | 90.7 ± 0.81 | 105 ± 2.6 | 110 ± 2.2 | 113 ± 5.3 | 111 ± 2.9 | 112 ± 5.7 | 112 ± 4.7 | 128 ± 1.4 | 108.9 ± 0.2 | 115 ± 4.3 | 111 ± 4.9 | 125 ± 4
2 | COc1ccc(-n2nc(C(N)=O)c3c2C(=O)N(c2ccc(N4CCCCC4=O)cc2)CC3)cc1 [Apixaban] | 107.9 ± 0.95 | 121 ± 0.2 | 112 ± 4.2 | 108 ± 3.1 | 91.79 ± 0.34 | 111 ± 2.4 | 117 ± 4.5 | 116.3 ± 0.34 | 115 ± 1.5 | 110 ± 3.2 | 104 ± 3.3 | 105 ± 4.6
3 | COc1cc(OC)c(OC)cc1C=O [Asaraldehyde] | 112 ± 3.5 | 116.4 ± 0.26 | 109.6 ± 0.37 | 96.2 ± 1.4 | 113.4 ± 0.62 | 92.3 ± 1.9 | 101 ± 2 | 103 ± 2 | 94.8 ± 1.3 | 99.98 ± 0.77 | 102.5 ± 0.13 | 96.06 ± 0.3
4 | CN1CC2c3ccccc3Oc3ccc(Cl)cc3C2C1 (stereo not drawn) [Asenapine maleate] | 110 ± 1.5 | 105.4 ± 0.74 | 106.4 ± 0.12 | 105 ± 5.3 | 110 ± 3.4 | 89.34 ± 0.58 | 110 ± 0.8 | 113 ± 3.3 | 110.6 ± 0.71 | 112 ± 5 | 103 ± 3.5 | 88.47 ± 0.57
5 | CN1[C@@H]2CC[C@H]1C[C@@H](OC(=O)C(CO)c1ccccc1)C2 (stereo partly drawn) [Atropine sulfate monohydrate] | 64.6 ± 5.9 | 79 ± 1.7 | 83.3 ± 5.4 | 79.6 ± 6.8 | 70.8 ± 5.3 | 63.6 ± 6.5 | 80.5 ± 7 | 92.1 ± 8.5 | 105 ± 6.5 | 97.9 ± 6.4 | 89.9 ± 3.7 | 80.3 ± 5
6 | CCN1CCN(C(=O)Cc2ccc(Nc3ncc(F)c(Nc4ccc(C(=O)Nc5ccccc5Cl)cc4)n3)cc2)CC1 [Aurora A Inhibitor I] | 105.83 ± 0.089 | 113 ± 3.6 | 114 ± 3.2 | 105 ± 2.2 | 104 ± 1.4 | 0.786 ± 0.16 | 101 ± 0.28 | 100.7 ± 0.54 | 98.55 ± 0.77 | 99.54 ± 0.75 | 87.1 ± 2.3 | 0.915 ± 0.027
7 | CC(C)c1cc(C(C)C)c(CC(=O)NS(=O)(=O)Oc2c(C(C)C)cccc2C(C)C)c(C(C)C)c1 [Avasimibe (CI-1011)] | 106.2 ± 1 | 97.5 ± 2.1 | 95.2 ± 2.4 | 99.6 ± 1.3 | 104.3 ± 0.53 | 106 ± 3.6 | 108 ± 8.1 | 99.44 ± 0.32 | 105 ± 3.1 | 101 ± 0.45 | 97.89 ± 0.25 | 97.8 ± 3.3
8 | CNC(=O)c1ccccc1Sc1ccc2c(/C=C/c3ccccn3)n[nH]c2c1 [Axitinib] | 102 ± 3.9 | 104 ± 1.7 | 113 ± 0.88 | 109 ± 3.8 | 103.5 ± 0.7 | 55 ± 0.8 | 86.7 ± 7.2 | 97.7 ± 3.4 | 100 ± 0.42 | 102 ± 1.1 | 98.7 ± 1.9 | 40.7 ± 1.5
9 | CN1CCCC(n2nc(Cc3ccc(Cl)cc3)c3ccccc3c2=O)CC1 (stereo not drawn) [Azelastine HCl (Astelin)] | 111 ± 0.65 | 114 ± 4.5 | 103 ± 4.9 | 109 ± 1.6 | 106.8 ± 0.17 | 90.43 ± 0.82 | 101 ± 3.8 | 92.3 ± 4.6 | 98.15 ± 0.86 | 100 ± 6.5 | 102 ± 2.2 | 68.28 ± 0.32
10 | CNC(=O)c1cc(Oc2ccc(NC(=O)Nc3ccc(Cl)c(C(F)(F)F)c3)c(F)c2)ccn1 [BAY 73-4506 (Regorafenib)] | 109 ± 1.5 | 93.9 ± 5.3 | 99.5 ± 0.71 | 98.4 ± 2.8 | 102 ± 1.4 | 88.2 ± 1.8 | 98.01 ± 0.19 | 99.11 ± 0.79 | 99.9 ± 2.3 | 102 ± 1.6 | 100 ± 1.8 | 63.55 ± 0.47
11 | CC[C@@H]1C(=O)N(C)c2cnc(Nc3ccc(C(=O)N[C@H]4CC[C@H](N5CCN(CC6CC6)CC5)CC4)cc3OC)nc2N1C(C)C [BI6727 (Volasertib)] | 96.1 ± 4.3 | 72.9 ± 4.5 | 59.6 ± 3 | 42.4 ± 0.63 | 41.9 ± 0.7 | 1.64 ± 0.065 | 76.3 ± 0.95 | 61.81 ± 0.53 | 53.6 ± 0.88 | 49 ± 2 | 44.3 ± 1.4 | 5.99 ± 0.27
12 | CC[C@@H]1C(=O)N(C)c2cnc(Nc3ccc(C(=O)NC4CCN(C)CC4)cc3OC)nc2N1C1CCCC1 [BI 2536] | 98.2 ± 3.1 | 80.3 ± 1.5 | 47.9 ± 1.7 | 44.6 ± 1.5 | 51.66 ± 0.21 | 29 ± 0.68 | 98.6 ± 1.3 | 66.74 ± 0.51 | 53 ± 1.2 | 43.5 ± 1.5 | 50.6 ± 0.58 | 13 ± 0.48
13 | COC(=O)c1ccc2c(C(=Nc3ccc(N(C)C(=O)CN4CCN(C)CC4)cc3)c3ccccc3)c(O)[nH]c2c1 [BIBF1120 (Vargatef)] | 101 ± 2.6 | 111 ± 5.3 | 112 ± 1.5 | 108 ± 3.1 | 105 ± 1.7 | 95.8 ± 1.2 | 86 ± 5.4 | 97.2 ± 3.1 | 103.3 ± 0.75 | 98.9 ± 3.9 | 96.9 ± 2.5 | 82 ± 2.1
14 | C/C(=C\C(=O)Nc1ccccc1C(=O)O)c1ccc2ccccc2c1 [BIBR1532] | 93.51 ± 0.69 | 98.3 ± 0.93 | 112 ± 5.2 | 105.7 ± 1 | 95.36 ± 0.93 | 87.4 ± 2.7 | 110 ± 3.1 | 98.3 ± 5 | 104.2 ± 0.53 | 103 ± 1.3 | 99.8 ± 0.11 | 96.4 ± 1.2
15 | Cn1c(CNc2ccc(C(=N)N)cc2)nc2cc(C(=O)N(CCC(=O)O)c3ccccn3)ccc21 [BIBR 953] | 64.4 ± 4.5 | 77.2 ± 5.6 | 90.2 ± 2.2 | 88.6 ± 4.5 | 82.7 ± 9.1 | 81 ± 4.6 | 78 ± 9 | 76.5 ± 10 | 82.8 ± 11 | 94.1 ± 7.3 | 88.3 ± 6.7 | 91.3 ± 4.6
16 | CCCCCCOC(=O)NC(=N)c1ccc(NCc2nc3cc(C(=O)N(CCC(=O)OCC)c4ccccn4)ccc3n2C)cc1 [BIBR-1048] | 78.58 ± 0.35 | 83.8 ± 4.3 | 90.2 ± 3 | 96.8 ± 4.4 | 107 ± 6.2 | 87.6 ± 3 | 82.2 ± 13 | 80.5 ± 6.2 | 88.7 ± 4.1 | 92.9 ± 8.5 | 72.9 ± 5.4 | 69.4 ± 1.5
17 | CN(C)C/C=C/C(=O)Nc1cc2c(Nc3ccc(F)c(Cl)c3)ncnc2cc1O[C@H]1CCOC1 [BIBW2992 )Tovok)] | 115 ± 3 | 108.3 ± 0.98 | 110 ± 1.6 | 108 ± 3.2 | 91.85 ± 0.61 | 13.8 ± 1.6 | 98.7 ± 5.2 | 106.2 ± 1 | 103 ± 6 | 100.3 ± 0.78 | 78.3 ± 2.9 | 7.915 ± 0.042
18 | COc1c(C)cnc(Cn2cnc3c(Cl)nc(N)nc32)c1C [BIIB021] | 107 ± 1.3 | 120 ± 2.2 | 117 ± 4.1 | 79 ± 2.7 | 33.3 ± 1.2 | 21.1 ± 0.83 | 108.8 ± 0.79 | 103 ± 1.5 | 104.1 ± 0.83 | 75 ± 2.9 | 5.92 ± 0.87 | 4.56 ± 0.052
19 | Cc1ccc(-n2nc(C(C)(C)C)cc2NC(=O)Nc2ccc(OCCN3CCOCC3)c3ccccc23)cc1 [BIRB 796] | 104 ± 3.1 | 107 ± 3.4 | 98.8 ± 4.4 | 103.8 ± 0.27 | 103 ± 4.7 | 104 ± 1.4 | 98 ± 1.9 | 98.8 ± 1.3 | 97.2 ± 1 | 98.7 ± 1.7 | 94.18 ± 0.14 | 95.5 ± 1.8
